Laboratory results: US11814367B2, “Inhibitors of glycogen synthase 1 (GYS1) and methods of use thereof” (Maze Therapeutics, Inc., priority 2021, dated 2023)

Legend:
[1] = target: hGYS1 enzyme (recombinant hGYS1/GN1 protein) (Homo sapiens (Human), UniProt P13807); test: GYS1 coupled enzyme assay (PK/LDH); type: biochemical; settings: hGYS1/GN1 50 nM, UDP-Glucose 0.8 mM, G6P 1 mM; geometric mean of at least 2 runs
[2] = target: hGYS2 enzyme (recombinant hGYS2/GN1 protein) (Homo sapiens (Human), UniProt P54840); test: GYS2 coupled enzyme assay (PK/LDH); type: biochemical; settings: geometric mean of at least 2 assay runs on separate days, read-out: Avg_IC50
In short: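 Continuous PK/LDH-coupled readout of NADH loss at 340 nm over 10 min, with 200 nM hGYS2/GN1 and 2 mM each of UDP-glucose, glucose-6-phosphate and PEP, in 50 mM Tris pH 7.5 with 0.2% glycogen and 2.5% DMSO. Slopes were normalized to controls and IC50s fit to a Hill curve from duplicates.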

[3] = test system: hGYS1 enzyme / glycogen synthesis in HeLa cells; test: GYS1 cell based assay (glycogen synthesis, Glucose-glo); design: species or system human; settings: 24 h incubation, 20 mM glucose, geometric mean of at least 2 runs
In short: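 HeLa cells starved 24 h in medium containing only 1× Glutamax were plated onto compound in medium with 20 mM glucose (1% DMSO final) for 24 h, 37 °C, 5% CO2. Acid lysates were Tris-quenched, glucoamylase-digested (pH 5.3, 1 h, 37 °C) and read by Glucose-glo luminescence. IC50 came from Hill fits, as geometric mean of ≥2 runs.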

Sequence of hGYS1 enzyme (recombinant hGYS1/GN1 protein) (P13807 whole entry): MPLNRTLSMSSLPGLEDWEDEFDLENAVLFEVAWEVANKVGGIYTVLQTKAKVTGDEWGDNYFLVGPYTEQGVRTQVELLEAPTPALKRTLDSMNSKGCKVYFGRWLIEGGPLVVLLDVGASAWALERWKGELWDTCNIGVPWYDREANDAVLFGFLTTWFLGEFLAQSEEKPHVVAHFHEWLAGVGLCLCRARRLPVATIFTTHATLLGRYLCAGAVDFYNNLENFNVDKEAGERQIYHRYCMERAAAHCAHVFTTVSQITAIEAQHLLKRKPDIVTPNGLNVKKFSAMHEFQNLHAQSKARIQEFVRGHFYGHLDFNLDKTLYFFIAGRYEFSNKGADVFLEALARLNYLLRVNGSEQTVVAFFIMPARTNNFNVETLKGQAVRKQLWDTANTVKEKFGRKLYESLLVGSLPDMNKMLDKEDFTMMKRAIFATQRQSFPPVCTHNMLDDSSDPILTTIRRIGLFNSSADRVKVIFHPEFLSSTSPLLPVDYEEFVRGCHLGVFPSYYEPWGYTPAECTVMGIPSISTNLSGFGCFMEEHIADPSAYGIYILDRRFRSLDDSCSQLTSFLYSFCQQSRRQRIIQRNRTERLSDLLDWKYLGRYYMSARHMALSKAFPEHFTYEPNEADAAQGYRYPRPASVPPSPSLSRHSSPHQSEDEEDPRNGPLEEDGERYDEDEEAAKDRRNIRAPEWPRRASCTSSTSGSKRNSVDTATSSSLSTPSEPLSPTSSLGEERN
Sequence of hGYS1 enzyme (recombinant hGYS1/GN1 protein) (P46976 whole entry partner): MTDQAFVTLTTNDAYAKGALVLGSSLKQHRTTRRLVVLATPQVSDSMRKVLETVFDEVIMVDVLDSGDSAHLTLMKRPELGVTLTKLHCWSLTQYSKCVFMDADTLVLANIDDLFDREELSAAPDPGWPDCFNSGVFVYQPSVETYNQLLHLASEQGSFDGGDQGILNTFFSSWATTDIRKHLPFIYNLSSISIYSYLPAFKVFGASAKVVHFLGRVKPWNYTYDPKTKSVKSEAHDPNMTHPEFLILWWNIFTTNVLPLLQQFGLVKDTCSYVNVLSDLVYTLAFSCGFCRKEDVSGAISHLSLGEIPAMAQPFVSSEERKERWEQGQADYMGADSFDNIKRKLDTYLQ
Sequence of hGYS2 enzyme (recombinant hGYS2/GN1 protein) (P54840 whole entry): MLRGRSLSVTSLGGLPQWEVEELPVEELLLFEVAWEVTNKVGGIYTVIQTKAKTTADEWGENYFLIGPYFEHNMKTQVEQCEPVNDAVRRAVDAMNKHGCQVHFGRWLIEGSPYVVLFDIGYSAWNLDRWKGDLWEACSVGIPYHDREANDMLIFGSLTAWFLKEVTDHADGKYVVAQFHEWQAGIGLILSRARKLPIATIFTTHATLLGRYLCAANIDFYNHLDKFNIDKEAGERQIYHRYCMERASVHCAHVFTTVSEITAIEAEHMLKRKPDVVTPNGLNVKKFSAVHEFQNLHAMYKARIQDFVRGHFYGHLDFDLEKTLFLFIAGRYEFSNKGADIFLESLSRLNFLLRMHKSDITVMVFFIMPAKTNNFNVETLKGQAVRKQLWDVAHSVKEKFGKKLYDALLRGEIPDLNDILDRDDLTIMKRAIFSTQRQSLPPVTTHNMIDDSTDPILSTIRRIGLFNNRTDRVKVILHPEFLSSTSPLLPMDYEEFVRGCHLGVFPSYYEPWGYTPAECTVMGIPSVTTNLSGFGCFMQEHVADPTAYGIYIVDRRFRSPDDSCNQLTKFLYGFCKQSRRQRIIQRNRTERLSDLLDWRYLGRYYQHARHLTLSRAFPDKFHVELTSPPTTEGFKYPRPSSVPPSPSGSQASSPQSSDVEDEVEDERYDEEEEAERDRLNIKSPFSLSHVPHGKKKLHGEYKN
Sequence of hGYS2 enzyme (recombinant hGYS2/GN1 protein) (P46976 whole entry partner): as the sequence (P46976 whole entry partner) above

SMILES	IC50 [1]	IC50 [2]	IC50 ([3]; Homo sapiens, HeLa, 24 h)	IC50 [3]
O=C(N[C@@H](c1ccccc1)c1ccc(C2CC2)c(F)n1)[C@@H]1C[C@@H](F)CN1C(=O)Cn1nnnc1C(F)F [Compound 293, (2S,4R)-N-((S)-(5-cyclopropl-6-fluoropyridin-2-yl)(phenyl)methyl)-1-(2-(5-(difluoromethyl)-1H-tetrazol-1-yl)acetyl)-4-fluoropyrrolidine-2-carboxamide]	38 nM	> 100000 nM	660 nM	–
COCCN1CCN(C(=O)OCC(=O)N2C[C@H](F)C[C@H]2C(=O)N[C@@H](c2ccccc2)c2ccc(C3(C)CC3)c(F)c2)CC1 [Compound 579, 2-[(2S,4R)-4-fluoro-2-{[(S)-[3-fluoro-4-(1-methylcyclopropyl)phenyl](phenyl)methyl]carbamoyl}pyrrolidin-1-yl]-2-oxoethyl 4-(2-methoxyethyl) piperazine-1-carboxylate]	59 nM	> 100000 nM	1830 nM	–
CC(C)c1ccc([C@@H](NC(=O)[C@@H]2C[C@@H](F)CN2C(=O)CNC(=O)N2CC(F)(F)C2)c2ccccc2)nc1F [Compound 410, (2S,4R)-1-{2-[(3,3-difluoroazetidine-1-carbonyl)amino]acetyl}-4-fluoro-N-[(S)-[6-fluoro-5-(propan-2-yl)pyridin-2-yl](phenyl)methyl]pyrrolidine-2-carboxamide]	8 nM	> 100000 nM	130 nM	–
CC(C)c1ccc([C@@H](NC(=O)[C@@H]2C[C@@H](F)CN2S(=O)(=O)Cc2cnn[nH]2)c2ccccc2)cc1F [Compound 772, (2S,4R)-4-fluoro-N-[(S)-[3-fluoro-4-(propan-2-yl)phenyl](phenyl)methyl]-1-[(1H-1,2,3-triazol-5-yl)methanesulfonyl] pyrrolidine-2-carboxamide]	356 nM	> 100000 nM	4530 nM	–
Cc1nccc(NCC(=O)N2C[C@H](F)C[C@H]2C(=O)N[C@@H](c2ccccc2)c2ccc(C3CC3)c(F)c2)n1 [Compound 472, (2S,4R)-N-[(S)-(4-cyclopropyl-3-fluorophenyl)(phenyl)methyl]-4-fluoro-1-{2-[(2-methylpyrimidin-4-yl)amino]acetyl} pyrrolidine-2-carboxamide]	22 nM	> 100000 nM	540 nM	–
O=C1Nc2ccccc2C1CC(=O)N1C[C@H](F)C[C@H]1C(=O)N[C@@H](c1ccccc1)c1ccc(C2CC2)c(F)c1 (stereo partly drawn) [Compound 467, (2S,4R)-N-[(S)-(4-cyclopropyl-3-fluorophenyl)(phenyl)methyl]-4-fluoro-1-[2-(2-oxo-2,3-dihydro-1H-indol-3-yl)acetyl]pyrrolidine-2-carboxamide]	324 nM	> 100000 nM	4810 nM	–
Cc1coc(CC(=O)N2C[C@H](F)C[C@H]2C(=O)N[C@@H](c2ccccc2)c2ccc(C(C)C)c(F)n2)n1 [Compound 409, (2S,4R)-4-fluoro-N-[(S)-[6-fluoro-5-(propan-2-yl)pyridin-2-yl](phenyl)methyl]-1-[2-(4-methyl-1,3-oxazol-2-yl)acetyl] pyrrolidine-2-carboxamide]	10 nM	> 100000 nM	290 nM	–
O=C(N[C@@H](c1ccccc1)c1ccc(C2CC(F)(F)C2)cn1)[C@@H]1C[C@@H](F)CN1C(=O)Cc1ncco1 [Compound 539, (2S,4R)-N-[(S)-[5-(3,3-difluorocyclobutyl)pyridin-2-yl] (phenyl)methyl]-4-fluoro-1-[2-(1,3-oxazol-2-yl)acetyl] pyrrolidine-2-carboxamide]	68 nM	> 100000 nM	960 nM	–
CC(C)c1ccc([C@@H](NC(=O)[C@@H]2C[C@@H](F)CN2C(=O)Cn2cnnc2)c2ccccc2)nc1F [Compound 390, (2S,4R)-4-fluoro-N-[(S)-[6-fluoro-5-(propan-2-yl)pyridin-2-yl](phenyl)methyl]-1-[2-(4H-1,2,4-triazol-4-yl)acetyl] pyrrolidine-2-carboxamide]	27 nM	> 100000 nM	1030 nM	–
O=C(N[C@@H](c1ccccc1)c1ccc(C2CC2)c(F)c1)[C@@H]1C[C@@H](F)CN1C(=O)CN1CCN(CC(F)(F)F)CC1=O [Compound 466, (2S,4R)-N-[(S)-(4-cyclopropyl-3-fluorophenyl)(phenyl)methyl]-4-fluoro-1-{2-[2-oxo-4-(2,2,2-trifluoroethyl)piperazin-1-yl]acetyl}pyrrolidine-2-carboxamide]	238 nM	> 100000 nM	2320 nM	–
CC(C)c1ccc([C@@H](NC(=O)[C@@H]2C[C@@H](F)CN2C(=O)Cn2cccn2)c2ccccc2)nc1F [Compound 781, (2S,4R)-4-fluoro-N-[(S)-[6-fluoro-5-(propan-2-yl)pyridin-2-yl](phenyl)methyl]-1-[2-(1H-pyrazol-1-yl)acetyl]pyrrolidine-2-carboxamide]	11 nM	> 100000 nM	270 nM	–
Cc1cc(C(NC(=O)[C@@H]2C[C@@H](F)CN2C(=O)Cc2c(C)nn(C)c2C)c2cccnc2N)ccc1C(C)C (single isomer, unassigned) [Compound 625, (2S,4R)-N-[(R) or (S)-(2-aminopyridin-3-yl)[3-methyl-4-(propan-2-yl)phenyl]methyl]-4-fluoro-1-[2-(1,3,5-trimethyl-1H-pyrazol-4-yl)acetyl]pyrrolidine-2-carboxamide]	139 nM	> 100000 nM	1140 nM	–
CN1CCN(C(=O)OCC(=O)N2C[C@H](F)C[C@H]2C(=O)N[C@@H](c2ccccc2)c2ccc(C3CC3)c(F)c2)CC1 [Compound 445, 2-[(2S,4R)-2-{[(S)-(4-cyclopropyl-3-fluorophenyl)(phenyl)methyl]carbamoyl}-4-fluoropyrrolidin-1-yl]-2-oxoethyl 4-methylpiperazine-1-carboxylate]	75 nM	> 100000 nM	1660 nM	–
O=C(N[C@@H](c1ccccc1)c1ccc(C2CC(F)(F)C2)c(F)c1)[C@@H]1C[C@@H](F)CN1C(=O)Cc1cnn[nH]1 [Compound 546, (2S,4R)-N-[(S)-[4-(3,3-difluorocyclobutyl)-3-fluorophenyl](phenyl)methyl]-4-fluoro-1-[2-(1H-1,2,3-triazol-5-yl)acetyl]pyrrolidine-2-carboxamide]	27 nM	> 100000 nM	510 nM	–
CN(C)C(=O)NCC(=O)N1C[C@H](F)C[C@H]1C(=O)N[C@H](c1ccccc1)c1ccc(C2CC(F)(F)C2)c(F)c1 [Compound 548, (2S,4R)-N-[(R)-[4-(3,3-difluorocyclobutyl)-3-fluorophenyl](phenyl)methyl]-1-{2-[(dimethylcarbamoyl)amino]acetyl}-4-fluoropyrrolidine-2-carboxamide]	328 nM	> 100000 nM	5760 nM	–
CC(C(=O)N1C[C@H](F)C[C@H]1C(=O)N[C@@H](c1ccccc1)c1ccc(C2(C)CC2)c(F)c1)n1cnc2ccccc21 (single isomer, unassigned) [Compound 567, (2S,4R)-1-[(2R) or (2S)-2-(1H-1,3-benzodiazol-1-yl)propanoyl]-4-fluoro-N-[(S)-[3-fluoro-4-(1-methylcyclopropyl)phenyl](phenyl)methyl]pyrrolidine-2-carboxamide]	642 nM	> 100000 nM	–	11500 nM
CC1(c2ccc([C@@H](NC(=O)[C@@H]3C[C@@H](F)CN3C(=O)Cc3cnn[nH]3)c3ccccc3)cc2F)CC1 [Compound 558, (2S,4R)-4-fluoro-N-[(S)-[3-fluoro-4-(1-methylcyclopropyl)phenyl](phenyl)methyl]-1-[2-(1H-1,2,3-triazol-5-yl)acetyl]pyrrolidine-2-carboxamide]	136 nM	> 100000 nM	2460 nM	–
CC(C)c1ccc([C@@H](NC(=O)[C@@H]2C[C@@H](F)CN2C(=O)Cn2cnnc2)c2ccccc2)cc1F [Compound 384, (2S,4R)-4-fluoro-N-[(S)-[3-fluoro-4-(propan-2-yl)phenyl](phenyl)methyl]-1-[2-(4H-1,2,4-triazol-4-yl)acetyl]pyrrolidine-2-carboxamide]	33 nM	> 100000 nM	700 nM	–
CC(C)(C)c1ccc(C(NC(=O)[C@@H]2C[C@@H](F)CN2C(=O)Cc2cnn[nH]2)c2ccccc2)nc1 (single isomer, unassigned) [Compound 611, (2S,4R)-N-[(S) or (R)-(5-tert-butylpyridin-2-yl)(phenyl)methyl]-4-fluoro-1-[2-(1H-1,2,3-triazol-5-yl)acetyl]pyrrolidine-2-carboxamide]	547 nM	> 100000 nM	5320 nM	–
CC(C)(C)c1ccc([C@@H](NC(=O)[C@@H]2C[C@@H](F)CN2C(=O)Cc2cnn[nH]2)c2ccccc2)cc1F [Compound 685, (2S,4R)-N-[(S)-(4-tert-butyl-3-fluorophenyl)(phenyl)methyl]-4-fluoro-1-[2-(1H-1,2,3-triazol-5-yl)acetyl]pyrrolidine-2-carboxamide]	204 nM	> 100000 nM	2710 nM	–
O=C(N[C@@H](c1ccccc1)c1ccc(C2CC2)c(F)c1)[C@@H]1C[C@@H](F)CN1C(=O)Cn1nnc2ccccc21 [Compound 450, (2S,4R)-1-[2-(1H-1,2,3-benzotriazol-1-yl)acetyl]-N-[(S)-(4-cyclopropyl-3-fluorophenyl)(phenyl)methyl]-4-fluoropyrrolidine-2-carboxamide]	94 nM	> 100000 nM	1730 nM	–
